Source: US20120289432A1, “PI3K MODULATORS, RHO KINASE MODULATORS AND METHODS OF IDENTIFYING AND USING SAME” (Corning Incorporated, priority 2009, published 2012)
Entries after “also recorded” stand apart in the source; their conditions may differ. Like-named read-outs stand apart in the source and are kept apart here.

How the values were obtained:
Format in all cases: cell-based, human
[1] = test system: A431 cells; experiment: DMR modulation of the EGF-induced response in quiescent A431 cells
Description: (§1) The index was generated after normalizing each marker-induced DMR signal in the presence of the inhibitor to its corresponding signal in the absence of the inhibitor. The percentage of modulation for each marker by the inhibitor was plotted as a function of the marker. As shown from left to right in a sequential order, the DMR events used for the basis of the modulation percentage calculation are: the N-DMR (50 min after stimulation) for pinacidil in A549, the P-DMR (50 min after stimulation) for forskolin in A549, the early P-DMR event (˜10 min after histamine stimulation) and the late P-DMR event (˜30 min after histamine stimulation) for histamine in A549, and the early P-DMR event (˜5 min after EGF stimulation) and the subsequent N-DMR event (˜30 min after EGF stimulation) for EGF in A431 cells. In all cases, the amplitudes of respective DMR events were used as the basis to calculate the percentages of modulation by the PI3K inhibitors. The same procedure was used to generate FIGS. 8 to 14.
(§2) Cells were typically grown using ˜1 to 2×10^4 cells per well at passage 3 to 15 suspended in 50 μl of the corresponding culture medium in the biosensor microplate, and were cultured at 37° C. under air/5% CO2 for ˜1 day. Except for A431 which underwent one day culture followed by one starvation in serum free medium, all other cells were directly assayed without starvation. The confluency for all cells at the time of assays was ˜95% to 100%.
(§3) For biosensor cellular assays, molecule solutions were made by diluting the stored concentrated solutions with the HBSS (1× Hanks balanced salt solution, plus 20 mM Hepes, pH 7.1), and transferred into a 384 well polypropylene molecule storage plate to prepare a molecule source plate. Both molecule and marker source plates were made separately when a two-step assay was performed. In parallel, the cells were washed twice with the HBSS and maintained in 30 μl of the HBSS to prepare a cell assay plate. Both the cell assay plate and the molecule and marker source plate(s) were then incubated in the hotel of the reader system. After ˜1 hr of incubation the baseline wavelengths of all biosensors in the cell assay microplate were recorded and normalized to zero. Afterwards, a 2 to 10 minute continuous recording was carried out to establish a baseline, and to ensure that the cells reached a steady state. Cellular responses were then triggered by pipetting 10 μl of the marker solutions into the cell assay plate using the on-board liquid handler.
(§4) To study the influence of molecules on a marker-induced response, a second stimulation with the marker at a fixed dose (typically at EC80 or EC100) was applied. The resonant wavelengths of all biosensors in the microplate were normalized again to establish a second baseline, right before the second stimulation. The two stimulations were usually separated by ˜1 hr.
(§5) All studies were carried out at a controlled temperature (28° C.). At least two independent sets of experiments, each with at least three replicates, were performed.

[2] = test system: A549 cells; experiment: DMR modulation of marker-induced responses (two-step assay) in A549 cells; conditions: for modulation of the pinacidil response in A549 cells: compound pretreatment ~1 hr (10 micromolar), then pinacidil 10 micromolar; for modulation of the forskolin response (P-DMR) in A549 cells / modulation of the histamine response (early and late P-DMR) in A549 cells: inhibitor 10 micromolar; for modulation of the forskolin response (P-DMR) in A549 cells: forskolin 16 micromolar; for modulation of the histamine response (early and late P-DMR) in A549 cells: histamine 10 micromolar
Description: as §1, §2, §3, §4, §5

[3] = test system: A549 cells; experiment: Label-free RWG (Epic) biosensor DMR assay, agonism mode, A549 cells; conditions: for EC50: Homo sapiens; for maximal amplitude / maximal response of the N-DMR signal: n=4
Description: as §2
(§6) Epic® beta version wavelength interrogation system (Corning Inc., Corning, N.Y.) was used for whole cell sensing. This system consists of a temperature-control unit, an optical detection unit, and an on-board liquid handling unit with robotics. The detection unit is centered on integrated fiber optics, and enables kinetic measures of cellular responses with a time interval of ˜15 sec.
as §3, §5

[4] = test system: HepG2 cells; experiment: DMR modulation of the ODN2006-induced response in HepG2 cells; conditions: inhibitor 10 micromolar, ODN2006 500 nM
Description: as §2
as §3, with “Cellular responses were then triggered by pipetting 10 μl of the marker solutions into the cell assay plate using the on-board liquid handler.” left out

[5] = test system: A549 and HepG2 cells; experiment: Biosensor index against panel of cells/markers (A549 and HepG2), compared with Y-27632
Description: It is well known that many kinas inhibitors often display polypharmacology (i.e., many kinase inhibitors can modulate the activity of multi-targets in a cell). In addition, drugs including kinase inhibitors often display cell- or tissue-dependent phenotypic pharmacology, due to the many cellular factors including post-transcriptional modifications, compartmentalization of signaling cascades, alteration of key gene products in the pathway, receptor oligomerization, and constitutive receptor activity. […] Thus, the primary modes of action of a drug or drug candidate molecule, including ROCK inhibitors, are a sum of at least several types of pharmacology—polypharmacology, phenotypic pharmacology and systems (integrative) pharmacology. To correctly detect the phenotypic pharmacology of a ROCK inhibitor that acts via the inhibition of ROCK activity in live cell, one needs a panel of cells as well as panels of markers using the biosensor cellular assays. Thus, a ROCK inhibitor responsive cell line, A549, and a ROCK inhibitor unresponsive cell line, HepG2, were chosen as model systems. […]

[6] = test system: HepG2 cells; experiment: Label-free RWG biosensor DMR assay, agonism mode, HepG2 cells; conditions: primary profile
Description: as §2, §6
For biosensor cellular assays, molecule solutions were made by diluting the stored concentrated solutions with the HBSS (1× Hanks balanced salt solution, plus 20 mM Hepes, pH 7.1), and transferred into a 384 well polypropylene molecule storage plate to prepare a molecule source plate. […] Both the cell assay plate and the molecule and marker source plate(s) were then incubated in the hotel of the reader system. After ˜1 hr of incubation the baseline wavelengths of all biosensors in the cell assay microplate were recorded and normalized to zero. […]

[7] = inhibitor 10 micromolar, EGF 32 nM
[8] = ~30 min after histamine stimulation

Row | Compound | modulation of the P-DMR event of the EGF response in A431 cells [1, 7] | modulation of the pinacidil response in A549 cells [2] | modulation of the forskolin response (P-DMR) in A549 cells [2] | modulation of the histamine response (early and late P-DMR) in A549 cells [2] | further results
1 | Cc1cc(C(C)Nc2ccccc2)c2nc(N3CCOCC3)cc(=O)n2c1 (racemic) [PI3Kβ inhibitor II, (+/−)-7-Methyl-2-(morpholin-4-yl)-9-(1-phenylaminoethyl)-pyridol[1,2-a]-pyrimidin-4-one] | significantly attenuated | – | – | – | modulation of the late P-DMR event of the histamine response in A549 cells [2, 8]: slightly suppression
2 | O=c1cc(N2CCOCC2)oc2c1ccc1ccccc12 [DNA-PK inhibitor II, 2-(Morpholin-4-yl)-benzo[h]chromen-4-one] | small attenuation | little or not modulation | significant potentiation | significant potentiation | –
3 | CC(=O)c1ccc(N2CCOCC2)cc1O [DNA-PK inhibitor III, 1-(2-Hydroxy-4-morpholin-4-yl-phenyl)ethanone] | small attenuation | little or not modulation | significant potentiation | significant potentiation | –
4 | CC1CNCCN1S(=O)(=O)c1cccc2cnccc12 (centres unmarked) [H-7] | – | complete or significant attenuation | – | – | –
5 | CNCCNS(=O)(=O)c1cccc2cnccc12 [H-8] | – | complete or significant attenuation | – | – | –
6 | NCCNS(=O)(=O)c1cccc2cnccc12 [H-9] | – | complete or significant attenuation | – | – | –
7 | O=S(=O)(NCCNC/C=C/c1ccc(Br)cc1)c1cccc2cnccc12 [H-89] | – | complete or significant attenuation | – | – | –
8 | NC(N)=NCCNS(=O)(=O)c1cccc2cnccc12 [HA-1004] | – | complete or significant attenuation | – | – | –
9 | O=S(=O)(c1cccc2cnccc12)N1CCCNCC1 [HA-1077] | – | complete or significant attenuation | – | – | –
10 | O=c1cc(N2CCOCC2)oc2c(-c3ccccc3)cccc12 [LY294002] | – | – | – | – | EC50 ([3]; 50 min, N-DMR amplitudes ~50 min after stimulation, n=4, read-out: EC50 of the N-DMR signal): 14.7 ± 1.5 µM; maximal amplitude / maximal response of the N-DMR signal [3]: ~400 picometers; modulation of the pinacidil response (N-DMR) ([2]; N-DMR 50 min after stimulation, marker signal with inhibitor normalized to signal without, FIG. 7C): −9%; modulation of the forskolin response (P-DMR) ([2]; P-DMR 50 min after stimulation, FIG. 7C): +33%; modulation of the histamine response, early P-DMR ([2]; ~10 min after histamine stimulation, FIG. 7C): +41%; modulation of the histamine response, late P-DMR ([2]; ~30 min after histamine stimulation, FIG. 7C): +90%
11 | O=C1NC(=O)C(=Cc2ccc3nccnc3c2)S1 [PI3Kγ inhibitor, 5-quinoxalin-6-ylmethylene-thiazolindine-2,4-dione] | small attenuation | little or not modulation | significant potentiation | significant potentiation | modulation of the late P-DMR event of the histamine response in A549 cells [2, 8]: moderate potentiation
12 | Oc1cccc(-c2nc(N3CCOCC3)c3oc4ncccc4c3n2)c1 [PI-103] | small attenuation | little or not modulation | significant potentiation | significant potentiation | –
13 | c1ccc2c(-c3ccncc3)c[nH]c2c1 [Rho kinase inhibitor III Rockout] | – | complete or significant attenuation | – | – | –
14 | CC(N/C(=N\C#N)Nc1ccncc1)C(C)(C)C (centres unmarked) [pinacidil] | – | – | – | – | EC50 ([3]; stimulation with pinacidil, read-out: EC50 of the biosensor signal): ~5 µM
15 | O=c1c(O)c(-c2ccc(O)c(O)c2)oc2cc(O)cc(O)c12 [quercetin] | small attenuation | little or not modulation | potentiated; also recorded: significant potentiation | potentiated; also recorded: significant potentiation | modulation of the ODN2006 DMR signal in HepG2 cells [4]: slightly attenuated; modulation of the N-DMR event of the EGF response in A431 cells [1, 7]: attenuated; modulation index score, EGF N-DMR ([1]; score +1 per 10% modulation): −5; modulation index score, EGF P-DMR ([1]; score +1 per 10% modulation): 0; modulation index score, forskolin ([2]; score +1 per 10% modulation): 2; modulation index score, histamine early P-DMR ([2]; score +1 per 10% modulation): 4; modulation index score, histamine late P-DMR ([2]; score +1 per 10% modulation): 9; modulation index score, pinacidil ([2]; score +1 per 10% positive modulation, opposite for negative): −1
16 | Oc1ccc(C=Cc2cc(O)cc(O)c2)cc1 [resveratrol] | small attenuation | little or not modulation | significant potentiation | significant potentiation | –
17 | COC[C@H]1OC(=O)c2coc3c2[C@@]1(C)C1=C(C3=O)[C@@H]2CCC(=O)[C@@]2(C)C[C@H]1OC(C)=O [wortmannin] | – | – | – | – | EC50 ([3]; 50 min, N-DMR amplitudes ~50 min after stimulation, n=4, read-out: EC50 of the DMR signal): 0.0727 ± 0.0034 µM; maximal amplitude / maximal response of the N-DMR signal [3]: ~700 picometers
18 | CDK1/2 inhibitor III | – | – | – | – | modulation of the biosensor signals of the markers in the panel ([5]; pinacidil, poly(IC), PMA, SLIGKV-amide, forskolin, histamine (A549), ODN2006 (HepG2)): attenuated the biosensor signals of most of markers; biosensor index compared with the Y-27632 biosensor index ([5]; primary profiles in A549 and HepG2 and modulation index against the panel of markers): quite distinct biosensor index; DMR (biosensor) signal of the compound in A549 cells ([3]; primary profile): negative DMR signal; DMR (biosensor) signal of the compound in HepG2 cells [6]: small decaying signal
19 | Rho kinase inhibitor IV | – | complete or significant attenuation | – | – | –
